Test results taken from patent publication US10336757B2, “Treatment of neurodegenerative diseases through inhibition of HSP90” (Sloan-Kettering Institute for Cancer Research, priority 2006, dated 2019).
Read-outs that look alike come from different tables or passages of the source.

Legend:
[1] = molecular target: P-glycoprotein (Homo sapiens (Human), UniProt P08183); conditions: known Hsp90 inhibitor, cited from earlier work
[2] = cited from earlier work
[3] = known Hsp90 inhibitors, cited from earlier work
[4] = tested on: p35; experiment: p35, Tau phosphorylation and Hsp70 in primary rat cortical neurons and COS-7/p35, COS-7/p35/Tau cells; type: cell-based; conditions: compared with PU24FC1
Description: Embryonic primary rat cortical neurons and COS-7 cells transfected with cDNAs corresponding to either p35 alone (COS-7/p35) or both p35 and Tau (COS-7/p35/Tau) are relevant experimental systems to study aberrant neuronal kinase activity because phosphorylation of Tau at putative cdk5 sites is both enhanced in these cells and in embryonic and juvenile brains (50, 52) and is similar to that in AD-afflicted brains (50). […]
To further examine the roles played by Hsp90 in tauopathy, we made use of both PU24FC1 and 17-(allyllamino)-17-demethoxygeldanamycin (17AAG) and investigated their effects on both cdk5/p35 and TauP301L in primary neuronal and COS-7 cell cultures. […] After incubation, cells were harvested and lysed in 2% SDS, and the resulting samples were analyzed by Western blotting.
We detected a dose- and time-dependent degradation of p35 by PU24FC1 in primary neurons, as well as in COS-7/p35 and COS-7/p35/Tau cells. […] Reduction of p35 levels by Hsp90 inhibition affected the activity of the cdk5/p35 complex, as measured using a substrate of cdk5, the histone-H1.

[5] = tested on: tau phosphorylation at pathological sites; experiment: Tau phosphorylation in AD cellular models; type: cell-based

Sequence of P-glycoprotein (P08183 whole entry): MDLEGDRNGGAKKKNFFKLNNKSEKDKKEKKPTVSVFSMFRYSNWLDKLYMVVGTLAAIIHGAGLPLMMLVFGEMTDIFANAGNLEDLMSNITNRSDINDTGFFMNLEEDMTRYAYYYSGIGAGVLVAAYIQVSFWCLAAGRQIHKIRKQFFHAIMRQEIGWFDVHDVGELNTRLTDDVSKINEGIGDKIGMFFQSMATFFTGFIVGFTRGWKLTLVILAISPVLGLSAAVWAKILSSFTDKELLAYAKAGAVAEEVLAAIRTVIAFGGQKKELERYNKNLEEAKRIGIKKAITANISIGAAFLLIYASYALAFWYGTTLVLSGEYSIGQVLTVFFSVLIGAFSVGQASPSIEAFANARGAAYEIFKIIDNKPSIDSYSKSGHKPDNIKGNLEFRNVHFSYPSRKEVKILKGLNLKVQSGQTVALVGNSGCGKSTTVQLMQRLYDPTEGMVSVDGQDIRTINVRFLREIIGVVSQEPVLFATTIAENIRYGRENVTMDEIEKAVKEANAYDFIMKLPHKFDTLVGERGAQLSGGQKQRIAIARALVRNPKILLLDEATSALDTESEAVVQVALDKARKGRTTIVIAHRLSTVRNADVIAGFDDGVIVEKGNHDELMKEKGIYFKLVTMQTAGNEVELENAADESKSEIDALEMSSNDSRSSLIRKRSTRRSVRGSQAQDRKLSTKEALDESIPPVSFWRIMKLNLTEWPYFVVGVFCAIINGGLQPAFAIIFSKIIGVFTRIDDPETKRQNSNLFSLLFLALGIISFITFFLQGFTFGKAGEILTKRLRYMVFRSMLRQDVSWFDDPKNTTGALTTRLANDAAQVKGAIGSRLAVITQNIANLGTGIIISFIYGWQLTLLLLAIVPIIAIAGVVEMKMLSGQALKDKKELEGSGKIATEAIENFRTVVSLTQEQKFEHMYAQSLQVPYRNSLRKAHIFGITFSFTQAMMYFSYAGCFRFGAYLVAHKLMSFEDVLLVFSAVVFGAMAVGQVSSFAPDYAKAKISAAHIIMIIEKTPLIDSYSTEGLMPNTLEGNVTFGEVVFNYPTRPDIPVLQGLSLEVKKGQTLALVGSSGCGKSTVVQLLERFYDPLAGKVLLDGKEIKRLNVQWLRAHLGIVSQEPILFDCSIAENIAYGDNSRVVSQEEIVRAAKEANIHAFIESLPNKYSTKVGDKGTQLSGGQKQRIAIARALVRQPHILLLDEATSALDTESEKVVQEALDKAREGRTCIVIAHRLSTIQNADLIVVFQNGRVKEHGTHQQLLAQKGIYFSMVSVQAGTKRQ

C=CCNC1=C2C[C@@H](C)C[C@H](OC)[C@H](O)[C@@H](C)/C=C(\C)[C@H](OC(N)=O)[C@@H](OC)/C=C\C=C(/C)C(=O)NC(=CC1=O)C2=O [Compound 17AAG, 17-(allyllamino)-17-demethoxygeldanamycin]
P-gp substrate [1]: P-gp substrate
P-gp substrate ([1]; listed as 17-AAG): P-glycoprotein substrate
solubility [2]: poorly soluble
crossing of the blood-brain barrier [3]: do not cross the blood-brain barrier
crossing of the blood-brain barrier ([3]; listed as 17-AAG): does not effectively cross the blood brain barrier
effects on p35 and mTau [4]: Analogous effects

C[C@@H]1C[C@H]2O[C@@H]2/C=C\C=C\C(=O)Cc2c(Cl)c(O)cc(O)c2C(=O)O1 [radicicol]
solubility [2]: poorly soluble
crossing of the blood-brain barrier [3]: do not cross the blood-brain barrier

COC1=C2C[C@@H](C)C[C@H](OC)[C@H](O)[C@@H](C)/C=C(\C)[C@H](OC(N)=O)[C@@H](OC)/C=C\C=C(/C)C(=O)NC(=CC1=O)C2=O [geldanamycin]
solubility [2]: poorly soluble
crossing of the blood-brain barrier [3]: do not cross the blood-brain barrier
tau phosphorylation levels at pathological sites [5]: reduced
